Data on seven compounds can be found in ChEMBL document CHEMBL3046837, “Synthesis of some novel amino and thiotetrazole purine derivatives and investigation of their antimicrobial activity and DNA interactions” (Med Chem Res, 2013).

Test [1] has as its system Escherichia coli. The test is described as follows: Antibacterial activity against Escherichia coli ATCC 35218 after 24 hr by disk diffusion method. The class given is functional, organism-based. A general note: Agar diffusion results depend on both activity and mobility in agar.
For test [2], the system named is Escherichia coli. The test is described as follows: Antibacterial activity against Escherichia coli ATCC 25922 after 24 hr by disk diffusion method. It counts as functional, organism-based.
The next test relates to Staphylococcus aureus. The test is described as follows: Antibacterial activity against Staphylococcus aureus ATCC 25923 after 24 hr by disk diffusion method. It counts as functional, organism-based.
For a further test, the system named is Pseudomonas aeruginosa. The test is described as follows: Antibacterial activity against Pseudomonas aeruginosa ATCC 27853 after 24 hr by disk diffusion method. It counts as functional, organism-based.
Test [3] concerns Escherichia coli. The test is described as follows: Binding affinity to Escherichia coli pBR322 DNA assessed as decrease in mobility of form 1 DNA at low concentration after 24 hr by agarose gel electrophoresis.
For the next test, the system named is Enterococcus faecalis. The test is described as follows: Antibacterial activity against Enterococcus faecalis […] after 24 hr by disk diffusion method. The class given is functional, organism-based.
Test [4] relates to Escherichia coli. The test is described as follows: Covalent binding to Escherichia coli pBR322 DNA Guanine-guanine site assessed as inhibition of BamH1-mediated restriction digestion at 1250 uM by restriction endonuclease analysis.
The next test relates to Bacillus cereus. The test is described as follows: Antibacterial activity against Bacillus cereus NRLL B-3008 after 24 hr by disk diffusion method. It counts as functional, organism-based.
In test [5] the test system is Escherichia coli. The test is described as follows: Binding affinity to Escherichia coli pBR322 DNA assessed as appearance of DNA fragments at low concentration after 24 hr by agarose gel electrophoresis.
The subject of the next test is Candida albicans. The test is described as follows: Antifungal activity against Candida albicans ATCC 10231 after 72 hr by disk diffusion method. The class given is functional, organism-based.
The subject of test [6] is Escherichia coli. The test is described as follows: Covalent binding to Escherichia coli pBR322 DNA adenine-adenine site assessed as inhibition of Hind3-mediated restriction digestion at 1250 uM by restriction endonuclease analysis.
The next test deals with Proteus vulgaris. The test is described as follows: Antibacterial activity against Proteus vulgaris ATCC 8427 after 24 hr by disk diffusion method. It counts as functional, organism-based.
In another test the test system is Candida tropicalis. The test is described as follows: Antifungal activity against Candida tropicalis ATCC 13803 after 72 hr by disk diffusion method. It counts as functional, organism-based.
For the next test, the system named is Bacillus subtilis. The test is described as follows: Antibacterial activity against Bacillus subtilis […] after 24 hr by disk diffusion method. It counts as functional, organism-based.
Test [7] has as its system Escherichia coli. The test is described as follows: Covalent binding to Escherichia coli pBR322 DNA assessed as disappearance of form 2 DNA at low concentration after 24 hr by agarose gel electrophoresis.
In test [8] the test system is Escherichia coli. The test is described as follows: Covalent binding to Escherichia coli pBR322 DNA assessed as disappearance of form 2 DNA at high concentration after 24 hr by agarose gel electrophoresis.
For test [9], the system named is Escherichia coli. The test is described as follows: Binding affinity to Escherichia coli pBR322 DNA assessed as appearance of DNA fragments at high concentration after 24 hr by agarose gel electrophoresis.
The subject of test [10] is Escherichia coli. The test is described as follows: Covalent binding to Escherichia coli pBR322 DNA assessed as increase in mobility of form 1 DNA at high concentration after 24 hr by agarose gel electrophoresis.
Test [11] has as its system Escherichia coli. The test is described as follows: Covalent binding to Escherichia coli pBR322 DNA assessed as increase in intensity of form 1 DNA at low concentration after 24 hr by agarose gel electrophoresis.
Test [12] relates to Escherichia coli. The test is described as follows: Covalent binding to Escherichia coli pBR322 DNA assessed as decrease in intensity of form 2 DNA at low concentration after 24 hr by agarose gel electrophoresis.

Calls of active or inactive are those of the source. The calls are words filed in the database; no cut-off is given here.

Turning to `CCCn1cnc2c(Nc3nnn[nH]3)ncnc21`, the result with Escherichia coli [1], in the test with Escherichia coli [2], with Staphylococcus aureus, with Pseudomonas aeruginosa, in the test on Enterococcus faecalis and in the test on Escherichia coli [4] was inactive. Further, the result in the test with Bacillus cereus, in the test with Candida albicans, with Proteus vulgaris, in the test with Candida tropicalis and with Bacillus subtilis was inactive. In addition, the result with Escherichia coli [3], in the test with Escherichia coli [5] and with Escherichia coli [6] was Active.
Take `CCCCCCn1cnc2c(Sc3nnnn3C)ncnc21`: the result in the test on Escherichia coli [1], with Escherichia coli [2], in the test with Staphylococcus aureus, with Pseudomonas aeruginosa, with Enterococcus faecalis and in the test with Bacillus cereus was inactive. In addition, the outcome with Candida albicans, in the test with Proteus vulgaris, in the test with Candida tropicalis and in the test on Bacillus subtilis was inactive. Moreover, the outcome in the test on Escherichia coli [3], with Escherichia coli [4], in the test on Escherichia coli [6] and with Escherichia coli [7] was Active.
As for `Cn1nnnc1Sc1ncnc2c1ncn2CC1CCC1`, the outcome with Escherichia coli [8], in the test on Escherichia coli [9], in the test with Escherichia coli [4] and with Escherichia coli [6] was Active. For the same compound, the outcome in the test with Escherichia coli [1], in the test with Escherichia coli [2], in the test on Staphylococcus aureus, in the test on Pseudomonas aeruginosa, with Enterococcus faecalis and with Bacillus cereus was inactive. Further, the outcome in the test on Candida albicans, in the test on Proteus vulgaris, in the test with Candida tropicalis and in the test on Bacillus subtilis was inactive.
For the compound `CCn1cnc2c(Sc3nnnn3C)ncnc21`, the outcome in the test with Escherichia coli [8], in the test with Escherichia coli [10], with Escherichia coli [4] and in the test on Escherichia coli [6] was Active. Besides, the result in the test with Escherichia coli [1], with Escherichia coli [2], in the test on Staphylococcus aureus, in the test on Pseudomonas aeruginosa, in the test on Enterococcus faecalis and in the test on Bacillus cereus was inactive. For the same compound, the outcome in the test on Candida albicans, in the test on Proteus vulgaris, in the test on Candida tropicalis and with Bacillus subtilis was inactive.
As for `Cn1nnnc1Sc1ncnc2c1ncn2Cc1ccccc1`, the outcome in the test on Escherichia coli [8], with Escherichia coli [9], in the test on Escherichia coli [4] and with Escherichia coli [6] was Active. Besides, the result in the test on Escherichia coli [1], in the test on Escherichia coli [2], in the test with Staphylococcus aureus, with Pseudomonas aeruginosa, in the test with Enterococcus faecalis and with Bacillus cereus was inactive. The result with Candida albicans, with Proteus vulgaris, in the test with Candida tropicalis and with Bacillus subtilis was inactive.
`Cn1nnnc1Sc1ncnc2c1ncn2CC1CCCCC1`: the outcome in the test with Escherichia coli [11], in the test with Escherichia coli [12], with Escherichia coli [4], with Escherichia coli [5] and with Escherichia coli [6] was Active. In addition, the result in the test on Escherichia coli [1], with Escherichia coli [2], in the test with Staphylococcus aureus, with Pseudomonas aeruginosa, in the test on Enterococcus faecalis and in the test with Bacillus cereus was inactive. In addition, the outcome in the test on Candida albicans, in the test with Proteus vulgaris, in the test with Candida tropicalis and in the test on Bacillus subtilis was inactive.
For the compound `Cn1nnnc1Sc1ncnc2c1ncn2C`, the outcome with Escherichia coli [1], in the test with Escherichia coli [2], with Staphylococcus aureus, in the test with Pseudomonas aeruginosa, in the test on Enterococcus faecalis and in the test with Bacillus cereus was inactive. Moreover, the outcome with Candida albicans, in the test with Proteus vulgaris, with Candida tropicalis and in the test on Bacillus subtilis was inactive. For the same compound, the result with Escherichia coli [10], with Escherichia coli [4] and in the test with Escherichia coli [6] was Active.
